Test results: paper PMC12615753, “Glutathione as a taste modulator: molecular mechanisms of interaction with umami and sweet taste receptors” (Food Chemistry: Molecular Sciences, 2025)

Key:
hTAS1R2/rTAS1R3 = target: T1, hTAS1R2/rTAS1R3 (UniProt Q8TE23+Q923K1); assay: Calcium assay in transfected HEK293T/17 cells, sweet taste receptor; type: cell-based, human, rat
T1 construct: The cDNA coding region of rTAS1R3 was synthesized with optimized-codon usage for human expression; expressed in transfected cells
T1 sequence (Q8TE23 20-839): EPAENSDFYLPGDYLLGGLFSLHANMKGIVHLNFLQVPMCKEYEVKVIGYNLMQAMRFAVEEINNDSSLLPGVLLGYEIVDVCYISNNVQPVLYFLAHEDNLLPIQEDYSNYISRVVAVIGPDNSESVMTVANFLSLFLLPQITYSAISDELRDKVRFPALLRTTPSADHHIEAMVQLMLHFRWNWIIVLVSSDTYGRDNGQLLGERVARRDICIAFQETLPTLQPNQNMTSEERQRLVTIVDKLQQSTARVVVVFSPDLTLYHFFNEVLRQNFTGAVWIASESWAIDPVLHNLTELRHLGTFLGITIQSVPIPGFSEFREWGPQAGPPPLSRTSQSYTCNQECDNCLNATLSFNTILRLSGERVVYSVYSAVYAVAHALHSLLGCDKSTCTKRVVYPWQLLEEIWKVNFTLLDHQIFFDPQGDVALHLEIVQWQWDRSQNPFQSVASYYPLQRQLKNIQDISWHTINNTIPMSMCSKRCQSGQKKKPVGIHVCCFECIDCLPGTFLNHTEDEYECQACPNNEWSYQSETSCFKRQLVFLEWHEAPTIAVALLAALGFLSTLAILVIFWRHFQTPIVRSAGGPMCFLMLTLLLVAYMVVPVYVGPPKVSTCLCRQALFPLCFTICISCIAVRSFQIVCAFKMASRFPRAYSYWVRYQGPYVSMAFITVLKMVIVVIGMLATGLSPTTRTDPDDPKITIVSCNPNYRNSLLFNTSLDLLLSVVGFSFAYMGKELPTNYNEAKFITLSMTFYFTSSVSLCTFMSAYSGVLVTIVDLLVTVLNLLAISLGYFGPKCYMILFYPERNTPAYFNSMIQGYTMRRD
T1 sequence (Q923K1 21-858): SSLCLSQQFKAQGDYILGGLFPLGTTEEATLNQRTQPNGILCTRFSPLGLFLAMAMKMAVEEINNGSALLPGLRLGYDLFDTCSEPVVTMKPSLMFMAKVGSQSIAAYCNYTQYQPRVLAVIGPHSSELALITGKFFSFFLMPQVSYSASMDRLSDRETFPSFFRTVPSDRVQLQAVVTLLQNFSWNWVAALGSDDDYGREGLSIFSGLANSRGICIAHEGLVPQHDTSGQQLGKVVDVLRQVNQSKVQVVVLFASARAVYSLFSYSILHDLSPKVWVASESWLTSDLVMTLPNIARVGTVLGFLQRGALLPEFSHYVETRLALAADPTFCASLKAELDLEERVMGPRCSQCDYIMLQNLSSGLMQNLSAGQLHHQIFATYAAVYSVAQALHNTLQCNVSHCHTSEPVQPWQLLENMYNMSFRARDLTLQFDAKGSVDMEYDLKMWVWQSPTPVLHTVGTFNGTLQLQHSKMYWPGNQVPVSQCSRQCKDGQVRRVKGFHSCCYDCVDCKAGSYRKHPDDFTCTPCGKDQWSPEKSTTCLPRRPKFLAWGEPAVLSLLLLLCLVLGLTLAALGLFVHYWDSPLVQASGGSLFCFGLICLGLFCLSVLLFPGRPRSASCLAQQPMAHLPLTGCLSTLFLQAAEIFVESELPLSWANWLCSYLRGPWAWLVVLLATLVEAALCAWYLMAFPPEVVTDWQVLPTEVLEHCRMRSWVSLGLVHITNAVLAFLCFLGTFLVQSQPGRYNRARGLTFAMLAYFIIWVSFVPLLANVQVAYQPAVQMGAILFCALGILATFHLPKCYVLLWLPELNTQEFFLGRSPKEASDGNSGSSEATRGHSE
Method: HEK293T/17 cells (ATCC CRL-11268) were seeded into clear bottom black 96-well plates coated with poly-D-lysine at a density of 32500 cells/well in 100 μL of DMEM containing 4.5 g/L glucose and supplemented with penicillin/streptomycin, 2 mM GlutaMAX and 10 % dialyzed fetal bovine serum. The plates were incubated for 24 h at 37 °C and 7.3 % CO2 in a humidified atmosphere. After incubation, using Fugene® 4 K (0.46 μL/well, Promega, Illkirch, France), the cells were transiently transfected with pcDNA3-hTAS1R1-WT (60 ng/well) or TAS1R1 mutants, pcDNA4-rTAS1R3 (60 ng/well), pcDNA3-Gα15i2 (10 ng/well), and pGP-CMV-GCaMP6s (Addgene #40753; 10 ng/well) as a genetically encoded calcium indicator. Twenty-four hours after transfection, the HEK293T/17 cells were rinsed with 100 μL of C1 buffer (130 mM NaCl, 5 mM KCl, 10 mM HEPES, 2 mM CaCl2, and 5 mM sodium pyruvate, pH 7.4). For each molecule tested, a semi-logarithmic concentration range was created consisting of seven increasing concentrations and a negative control (zero dose) made of buffer C1. Binary mixtures with different molecules were also made to study potential synergy. In this case, the concentration range was tested in C1 buffer containing the other molecules to be tested. The concentration ranges varied depending on the molecule, its solubility, and its effectiveness in activating the receptor. All the solutions were made on the day of the test to prevent any oxidation of the compounds. If needed, the pH of each solution was adjusted by to pH 7.4 by adding NaOH. After 20 s of basal fluorescence calcium measurement, the cells were stimulated via automatic injection of a range of compounds in eight wells, and the signal emission was recorded for an additional 70 s, via a FlexStation 3® fluorometric microplate reader (Molecular Devices, San Jose, CA, USA). As a control, molecules were also tested on mock-transfected cells with the empty vector. The emitted fluorescence was measured at a wavelength of 510 nm after excitation at 488 nm. Each measurement was performed in duplicate on the same plate, and the experiments were carried out at least four times. Kinetic data were acquired via SoftMax Pro 5.4.6 software (Molecular Devices). For each well, the decrease in the raw fluorescence as the relative fluorescence changed was calculated as ΔF/F0. Replicates were averaged for the wells subjected to the same stimuli, the background signal was subtracted, and the fluorescence changes in mock-transfected cells were subtracted. The half-maximal effective concentration (EC50) and maximal signal amplitude (max ∆F/F0) were calculated via non-linear regression of the sigmoidal function four-parameter logistic equation [f(x) = min + (max − min)/(1 + (x/EC50)^nH)] via SigmaPlot 15.0 software (Grafiti LLC, Palo Alto, CA, USA). […]

hTAS1R2/rTAS1R3(Mut1) = target: T2, hTAS1R2/rTAS1R3(Mut1) (UniProt Q8TE23+Q923K1, A277V/L68N/R278H/S168G/S302A); assay: Calcium assay, mutated rTAS1R3 co-expressed with hTAS1R2; type: cell-based, human, rat
T2 construct: The cDNA coding region of rTAS1R3 was synthesized with optimized-codon usage for human expression; expressed in transfected cells
T2 sequence (Q923K1 21-858 L68N/S168G/A277V/R278H/S302A, one chain of several): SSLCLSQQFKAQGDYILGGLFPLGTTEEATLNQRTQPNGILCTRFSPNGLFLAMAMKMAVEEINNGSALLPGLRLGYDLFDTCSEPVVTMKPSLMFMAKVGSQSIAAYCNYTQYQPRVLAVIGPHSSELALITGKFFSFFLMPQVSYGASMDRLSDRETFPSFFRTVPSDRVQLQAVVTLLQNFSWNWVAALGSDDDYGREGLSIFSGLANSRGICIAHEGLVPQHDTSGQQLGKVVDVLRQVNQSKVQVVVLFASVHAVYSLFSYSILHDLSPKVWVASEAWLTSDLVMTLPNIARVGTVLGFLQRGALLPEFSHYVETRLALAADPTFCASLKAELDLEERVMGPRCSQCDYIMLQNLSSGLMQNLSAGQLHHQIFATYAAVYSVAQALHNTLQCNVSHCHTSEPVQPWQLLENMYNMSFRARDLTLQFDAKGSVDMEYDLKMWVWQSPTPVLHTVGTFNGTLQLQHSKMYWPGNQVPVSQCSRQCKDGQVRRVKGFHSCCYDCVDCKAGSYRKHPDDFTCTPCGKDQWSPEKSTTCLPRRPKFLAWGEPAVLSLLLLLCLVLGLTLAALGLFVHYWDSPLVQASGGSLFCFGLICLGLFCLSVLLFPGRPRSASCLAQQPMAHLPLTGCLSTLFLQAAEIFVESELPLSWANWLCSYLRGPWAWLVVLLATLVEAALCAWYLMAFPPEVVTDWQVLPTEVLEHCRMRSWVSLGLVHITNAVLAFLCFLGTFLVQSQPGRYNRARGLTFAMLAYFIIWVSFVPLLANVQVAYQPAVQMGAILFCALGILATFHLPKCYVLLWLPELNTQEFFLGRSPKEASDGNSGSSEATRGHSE
Method: HEK293T/17 cells (ATCC CRL-11268) were seeded into clear bottom black 96-well plates coated with poly-D-lysine at a density of 32500 cells/well in 100 μL of DMEM containing 4.5 g/L glucose and supplemented with penicillin/streptomycin, 2 mM GlutaMAX and 10 % dialyzed fetal bovine serum. The plates were incubated for 24 h at 37 °C and 7.3 % CO2 in a humidified atmosphere. After incubation, using Fugene® 4 K (0.46 μL/well, Promega, Illkirch, France), the cells were transiently transfected with pcDNA3-hTAS1R1-WT (60 ng/well) or TAS1R1 mutants, pcDNA4-rTAS1R3 (60 ng/well), pcDNA3-Gα15i2 (10 ng/well), and pGP-CMV-GCaMP6s (Addgene #40753; 10 ng/well) as a genetically encoded calcium indicator. […] After 20 s of basal fluorescence calcium measurement, the cells were stimulated via automatic injection of a range of compounds in eight wells, and the signal emission was recorded for an additional 70 s, via a FlexStation 3® fluorometric microplate reader (Molecular Devices, San Jose, CA, USA). […] The emitted fluorescence was measured at a wavelength of 510 nm after excitation at 488 nm. […] For each well, the decrease in the raw fluorescence as the relative fluorescence changed was calculated as ΔF/F0. Replicates were averaged for the wells subjected to the same stimuli, the background signal was subtracted, and the fluorescence changes in mock-transfected cells were subtracted. […]

hTAS1R1 = target: T3, hTAS1R1 (Homo sapiens, UniProt Q7RTX1); assay: Calcium assay, subunit expressed alone; type: cell-based
T3 construct: UniProtKB number Q7RTX1–1); expressed in transfected cells; host or cells: HEK293 cells
T3 sequence (Q7RTX1 21-841): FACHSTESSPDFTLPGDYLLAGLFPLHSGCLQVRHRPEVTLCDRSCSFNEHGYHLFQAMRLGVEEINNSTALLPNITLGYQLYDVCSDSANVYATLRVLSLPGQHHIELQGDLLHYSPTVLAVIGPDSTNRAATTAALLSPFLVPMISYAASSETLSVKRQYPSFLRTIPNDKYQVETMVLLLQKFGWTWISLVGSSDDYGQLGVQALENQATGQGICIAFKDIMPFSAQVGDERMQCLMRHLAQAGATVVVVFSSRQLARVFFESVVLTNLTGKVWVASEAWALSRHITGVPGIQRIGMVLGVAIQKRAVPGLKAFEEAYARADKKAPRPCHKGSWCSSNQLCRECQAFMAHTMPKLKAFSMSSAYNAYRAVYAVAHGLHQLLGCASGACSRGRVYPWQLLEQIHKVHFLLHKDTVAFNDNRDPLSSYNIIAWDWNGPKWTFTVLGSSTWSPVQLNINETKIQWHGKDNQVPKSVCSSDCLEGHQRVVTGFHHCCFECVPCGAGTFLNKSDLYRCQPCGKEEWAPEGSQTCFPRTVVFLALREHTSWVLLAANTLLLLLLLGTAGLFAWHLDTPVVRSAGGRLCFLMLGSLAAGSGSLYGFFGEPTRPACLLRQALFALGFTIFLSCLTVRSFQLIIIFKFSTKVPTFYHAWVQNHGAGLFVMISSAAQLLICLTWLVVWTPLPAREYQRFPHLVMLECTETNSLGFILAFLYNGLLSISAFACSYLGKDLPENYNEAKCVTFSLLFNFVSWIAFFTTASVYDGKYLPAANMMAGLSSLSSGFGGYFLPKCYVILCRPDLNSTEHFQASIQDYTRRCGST
Method: HEK293T/17 cells (ATCC CRL-11268) were seeded into clear bottom black 96-well plates coated with poly-D-lysine at a density of 32500 cells/well in 100 μL of DMEM containing 4.5 g/L glucose and supplemented with penicillin/streptomycin, 2 mM GlutaMAX and 10 % dialyzed fetal bovine serum. The plates were incubated for 24 h at 37 °C and 7.3 % CO2 in a humidified atmosphere. After incubation, using Fugene® 4 K (0.46 μL/well, Promega, Illkirch, France), the cells were transiently transfected with pcDNA3-hTAS1R1-WT (60 ng/well) or TAS1R1 mutants, pcDNA4-rTAS1R3 (60 ng/well), pcDNA3-Gα15i2 (10 ng/well), and pGP-CMV-GCaMP6s (Addgene #40753; 10 ng/well) as a genetically encoded calcium indicator. Twenty-four hours after transfection, the HEK293T/17 cells were rinsed with 100 μL of C1 buffer (130 mM NaCl, 5 mM KCl, 10 mM HEPES, 2 mM CaCl2, and 5 mM sodium pyruvate, pH 7.4). For each molecule tested, a semi-logarithmic concentration range was created consisting of seven increasing concentrations and a negative control (zero dose) made of buffer C1. […] After 20 s of basal fluorescence calcium measurement, the cells were stimulated via automatic injection of a range of compounds in eight wells, and the signal emission was recorded for an additional 70 s, via a FlexStation 3® fluorometric microplate reader (Molecular Devices, San Jose, CA, USA). […] The emitted fluorescence was measured at a wavelength of 510 nm after excitation at 488 nm. […] For each well, the decrease in the raw fluorescence as the relative fluorescence changed was calculated as ΔF/F0. Replicates were averaged for the wells subjected to the same stimuli, the background signal was subtracted, and the fluorescence changes in mock-transfected cells were subtracted. The half-maximal effective concentration (EC50) and maximal signal amplitude (max ∆F/F0) were calculated via non-linear regression of the sigmoidal function four-parameter logistic equation [f(x) = min + (max − min)/(1 + (x/EC50)^nH)] via SigmaPlot 15.0 software (Grafiti LLC, Palo Alto, CA, USA). […]

hTAS1R1/rTAS1R3 = target: T4, hTAS1R1/rTAS1R3 (UniProt Q7RTX1+Q923K1); assay: Calcium assay (GCaMP6s, Gα15i2) in transiently transfected HEK293T/17 cells; type: cell-based, human, rat
T4 construct: UniProtKB number Q7RTX1–1); The cDNA coding region of rTAS1R3 was synthesized with optimized-codon usage for human expression; expressed in transfected cells; host or cells: HEK293T/17 (ATCC CRL-11268)
T4 sequence (Q7RTX1 21-841): T3 sequence (Q7RTX1 21-841)
T4 sequence (Q923K1 21-858): T1 sequence (Q923K1 21-858)
Method: To this end, hTAS1R1/rTAS1R3 and the chimeric G protein Gα15i2 were transiently expressed in HEK293T cells. Cellular responses were assessed via calcium imaging using a fluorescent protein calcium biosensor (GCaMP6s) and compared with those of mock-transfected cells.

| Structure (SMILES) | EC50 (hTAS1R2/rTAS1R3; WT, sucralose alone, Fig. 4A) [µM] | EC50 (hTAS1R2/rTAS1R3; agonist alone, Fig. 2) [µM] | EC50 (hTAS1R2/rTAS1R3(Mut1); sucralose alone, Fig. 4A) [µM] | fold decrease in the EC50 value of sucralose (hTAS1R2/rTAS1R3; in the presence of 10 mM GSH) [fold] | effect of 10 mM GSH on the response to S807 (hTAS1R1) | response of transfected cells (hTAS1R1; GSH alone, Fig. 5A) | maximal response, fold lower than that elicited by L-Glu (hTAS1R1/rTAS1R3) [fold] | EC50 (hTAS1R1/rTAS1R3; GSH alone, Fig. 6C) [µM] | EC50 (hTAS1R1/rTAS1R3; GSH alone, Fig. 6D) [µM] | EC50 (hTAS1R1/rTAS1R3; GSH alone, Fig. 6E) [µM] | EC50 (hTAS1R1/rTAS1R3; WT, GSH) [µM] | Max ∆F/F0 (hTAS1R1/rTAS1R3; WT, GSH) | R1 = mutant EC50/WT EC50 (hTAS1R1/rTAS1R3; WT, GSH) | EC50 (hTAS1R1/rTAS1R3; WT, GSH alone, Fig. 4C) [µM] | EC50 (hTAS1R1/rTAS1R3; agonist alone, Fig. 1, Fig. S2) [µM] | max ∆F/F0 (hTAS1R1/rTAS1R3; agonist alone, Fig. 1, Fig. S2) | effect on the dose-response curves to L-Glu (hTAS1R1/rTAS1R3; in the presence of 3 mM and 10 mM GSH, Fig. 6F) | effect of 10 mM GSH on the response to sucralose (hTAS1R2/rTAS1R3(Mut1)) | EC50 (hTAS1R1; S807 alone, Fig. 5D) [µM] | EC50 (hTAS1R1/rTAS1R3; WT, S807 alone, Fig. 4E) [µM] |
| --- | --- | --- | --- | --- | --- | --- | --- | --- | --- | --- | --- | --- | --- | --- | --- | --- | --- | --- | --- | --- |
| OC[C@H]1O[C@H](O[C@]2(CCl)O[C@H](CCl)[C@@H](O)[C@@H]2O)[C@H](O)[C@@H](O)[C@H]1Cl [sucralose, reference compound] | 325 ± 140 | 251 ± 128 | 283 ± 55 | – | – | – | – | – | – | – | – | – | – | – | – | – | – | – | – | – |
| N[C@@H](CCC(=O)N[C@@H](CS)C(=O)NCC(=O)O)C(=O)O [GSH, γ-L-glutamyl-L-cysteinyl-glycine] | – | 4060 ± 2510 | – | 3 | not increased | did not respond | 2.2 | 3430 ± 98 | 4360 ± 308 | 3210 ± 138 | 2520 ± 238 | 0.23 ± 0.01 | 1.0 | 4250 ± 500 | 2150 ± 87 | 0.46 ± 0.01 | a leftward shift and a decrease in the EC50 values | not increased | – | – |
| CCCC(CCC)NC(=O)c1ccc2c(c1)OCO2 [S807, N-(heptan-4-yl)benzo[d][1,3]dioxole-5-carboxamide, reference compound] | – | – | – | – | – | – | – | – | – | – | – | – | – | – | 1.02 ± 0.08 | 1.87 ± 0.03 | – | – | 0.89 ± 0.13 | 1.25 ± 0.12 |
